Experiments:
Assay in all cases: radiometric filter-binding kinase assay, Kinase HotSpot
Details in all cases: compound 0.5 µM; ATP 10 µM
EPHA8 (human) = EPHA8 (human) (UniProt P29322)
SGK3 (human) = SGK3 (human) (UniProt Q96BR1)
DDR2 (human) = DDR2 (human) (UniProt Q16832)
PIM1 (human) = PIM1 (human) (UniProt P11309)
NUAK1 (human) = NUAK1 (human) (UniProt O60285)
NEK11 (human) = NEK11 (human) (UniProt Q8NG66)
CLK3 (human) = CLK3 (human) (UniProt P49761)
HCK (human) = HCK (human) (UniProt P08631)
DYRK3 (human) = DYRK3 (human) (UniProt O43781)
TSSK2 (human) = TSSK2 (human) (UniProt Q96PF2)
FGFR3 (human) = FGFR3 (human) (UniProt P22607)
NTRK2 (human) = NTRK2 (human) (UniProt Q16620)
MERTK (human) = MERTK (human) (UniProt Q12866)
PIM3 (human) = PIM3 (human) (UniProt Q86V86)
CSNK1G3 (human) = CSNK1G3 (human) (UniProt Q9Y6M4)
NEK4 (human) = NEK4 (human) (UniProt P51957)
MARK2 (human) = MARK2 (human) (UniProt Q7KZI7)
PLK1 (human) = PLK1 (human) (UniProt P53350)
MST1R (human) = MST1R (human) (UniProt Q04912)
CSNK1E (human) = CSNK1E (human) (UniProt P49674)
Chain of CSNK1E (human) (P49674 whole entry, looked up): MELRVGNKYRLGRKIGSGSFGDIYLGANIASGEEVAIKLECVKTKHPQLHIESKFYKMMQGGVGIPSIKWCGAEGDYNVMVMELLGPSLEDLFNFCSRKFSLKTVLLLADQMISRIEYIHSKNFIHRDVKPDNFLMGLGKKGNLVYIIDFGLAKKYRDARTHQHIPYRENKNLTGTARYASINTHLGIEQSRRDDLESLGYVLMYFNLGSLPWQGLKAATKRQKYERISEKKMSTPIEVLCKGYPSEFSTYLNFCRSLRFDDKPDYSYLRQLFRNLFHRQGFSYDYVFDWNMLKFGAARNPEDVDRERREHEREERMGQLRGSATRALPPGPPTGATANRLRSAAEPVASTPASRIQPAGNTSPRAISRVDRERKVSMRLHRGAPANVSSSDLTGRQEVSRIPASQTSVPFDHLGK

PRKX (human) = PRKX (human) (UniProt P51817)
STK11 (human) = STK11 (human) (UniProt Q15831)
TYRO3 (human) = TYRO3 (human) (UniProt Q06418)
MAP3K3 (human) = MAP3K3 (human) (UniProt Q99759)
PLK2 (human) = PLK2 (human) (UniProt Q9NYY3)
Chain of PLK2 (human) (Q9NYY3 whole entry, looked up): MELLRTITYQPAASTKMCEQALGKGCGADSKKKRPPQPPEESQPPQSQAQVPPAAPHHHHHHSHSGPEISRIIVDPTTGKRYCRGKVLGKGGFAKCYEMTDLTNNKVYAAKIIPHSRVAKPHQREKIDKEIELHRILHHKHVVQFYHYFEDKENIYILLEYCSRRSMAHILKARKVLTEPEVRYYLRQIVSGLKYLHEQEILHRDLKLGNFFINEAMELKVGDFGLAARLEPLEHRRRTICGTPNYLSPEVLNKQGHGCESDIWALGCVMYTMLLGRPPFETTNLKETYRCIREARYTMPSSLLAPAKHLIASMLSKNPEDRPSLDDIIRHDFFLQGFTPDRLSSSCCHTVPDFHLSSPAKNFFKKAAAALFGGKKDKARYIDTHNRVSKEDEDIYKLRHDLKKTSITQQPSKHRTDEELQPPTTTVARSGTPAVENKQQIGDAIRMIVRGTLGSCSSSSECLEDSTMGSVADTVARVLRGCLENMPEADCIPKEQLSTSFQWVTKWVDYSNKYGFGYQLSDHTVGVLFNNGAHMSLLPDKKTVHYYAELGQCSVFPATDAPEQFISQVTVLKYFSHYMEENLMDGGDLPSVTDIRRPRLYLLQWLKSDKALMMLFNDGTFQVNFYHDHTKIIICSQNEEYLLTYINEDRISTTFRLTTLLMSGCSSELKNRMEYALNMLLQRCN

EPHA1 (human) = EPHA1 (human) (UniProt P21709)
Chain of EPHA1 (human) (P21709 whole entry, looked up): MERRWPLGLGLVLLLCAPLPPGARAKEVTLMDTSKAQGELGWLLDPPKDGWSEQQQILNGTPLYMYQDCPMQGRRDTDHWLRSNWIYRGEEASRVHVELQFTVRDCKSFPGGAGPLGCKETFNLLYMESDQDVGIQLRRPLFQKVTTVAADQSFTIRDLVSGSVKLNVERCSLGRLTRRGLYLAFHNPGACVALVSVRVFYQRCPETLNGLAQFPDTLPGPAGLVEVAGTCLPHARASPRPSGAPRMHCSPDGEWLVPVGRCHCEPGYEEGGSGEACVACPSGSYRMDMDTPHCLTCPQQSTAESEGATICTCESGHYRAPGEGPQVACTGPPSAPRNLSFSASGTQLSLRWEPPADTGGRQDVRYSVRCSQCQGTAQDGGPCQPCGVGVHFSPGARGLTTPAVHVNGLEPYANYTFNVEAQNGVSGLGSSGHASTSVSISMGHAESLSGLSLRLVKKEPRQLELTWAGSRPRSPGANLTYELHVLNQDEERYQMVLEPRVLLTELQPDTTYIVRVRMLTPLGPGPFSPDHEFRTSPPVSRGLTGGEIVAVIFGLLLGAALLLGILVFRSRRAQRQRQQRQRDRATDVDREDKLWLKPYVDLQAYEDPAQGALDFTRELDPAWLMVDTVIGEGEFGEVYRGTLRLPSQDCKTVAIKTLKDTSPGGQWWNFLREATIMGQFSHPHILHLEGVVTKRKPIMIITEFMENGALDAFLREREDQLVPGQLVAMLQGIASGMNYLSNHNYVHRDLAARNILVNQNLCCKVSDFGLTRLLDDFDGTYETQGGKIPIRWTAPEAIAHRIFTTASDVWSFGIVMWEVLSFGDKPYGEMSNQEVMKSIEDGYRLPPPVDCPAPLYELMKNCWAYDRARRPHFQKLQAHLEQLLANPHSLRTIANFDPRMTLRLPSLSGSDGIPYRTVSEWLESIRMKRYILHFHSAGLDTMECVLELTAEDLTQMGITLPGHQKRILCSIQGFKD

BTK (human) = BTK (human) (UniProt Q06187)
MAP4K2 (human) = MAP4K2 (human) (UniProt Q12851)
CSNK1D (human) = CSNK1D (human) (UniProt P48730)
STK17A (human) = STK17A (human) (UniProt Q9UEE5)
Chain of STK17A (human) (Q9UEE5 whole entry, looked up): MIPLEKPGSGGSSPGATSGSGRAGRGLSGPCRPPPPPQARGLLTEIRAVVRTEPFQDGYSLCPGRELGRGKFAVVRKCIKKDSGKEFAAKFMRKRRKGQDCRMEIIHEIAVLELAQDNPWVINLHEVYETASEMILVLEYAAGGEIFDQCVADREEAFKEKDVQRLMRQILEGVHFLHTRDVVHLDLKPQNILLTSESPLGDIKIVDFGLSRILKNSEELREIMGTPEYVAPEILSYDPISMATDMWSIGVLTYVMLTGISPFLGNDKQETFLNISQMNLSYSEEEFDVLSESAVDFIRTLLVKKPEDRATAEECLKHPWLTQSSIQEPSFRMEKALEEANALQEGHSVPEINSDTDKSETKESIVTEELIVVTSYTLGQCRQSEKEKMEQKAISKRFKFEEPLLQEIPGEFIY

CSNK1G1 (human) = CSNK1G1 (human) (UniProt Q9HCP0)
MATK (human) = MATK (human) (UniProt P42679)
Chain of MATK (human) (P42679 whole entry, looked up): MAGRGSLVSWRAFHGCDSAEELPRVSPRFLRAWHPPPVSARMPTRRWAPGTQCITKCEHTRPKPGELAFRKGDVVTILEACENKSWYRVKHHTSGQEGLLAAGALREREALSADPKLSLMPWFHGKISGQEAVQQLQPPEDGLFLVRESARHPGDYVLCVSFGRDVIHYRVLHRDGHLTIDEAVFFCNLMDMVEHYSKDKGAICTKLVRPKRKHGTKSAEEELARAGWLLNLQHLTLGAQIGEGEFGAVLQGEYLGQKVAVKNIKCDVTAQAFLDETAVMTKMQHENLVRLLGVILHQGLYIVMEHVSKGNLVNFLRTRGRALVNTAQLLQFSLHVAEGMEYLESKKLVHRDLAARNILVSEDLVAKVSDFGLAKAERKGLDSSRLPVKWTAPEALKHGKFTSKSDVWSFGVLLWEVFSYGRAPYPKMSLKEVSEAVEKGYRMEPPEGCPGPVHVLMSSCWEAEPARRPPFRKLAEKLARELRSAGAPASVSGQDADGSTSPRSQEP

GSK3A (human) = GSK3A (human) (UniProt P49840)
FGFR2 (human) = FGFR2 (human) (UniProt P21802)
EPHB3 (human) = EPHB3 (human) (UniProt P54753)
WNK2 (human) = WNK2 (human) (UniProt Q9Y3S1)
MUSK (human) = MUSK (human) (UniProt O15146)
Chain of MUSK (human) (O15146 whole entry, looked up): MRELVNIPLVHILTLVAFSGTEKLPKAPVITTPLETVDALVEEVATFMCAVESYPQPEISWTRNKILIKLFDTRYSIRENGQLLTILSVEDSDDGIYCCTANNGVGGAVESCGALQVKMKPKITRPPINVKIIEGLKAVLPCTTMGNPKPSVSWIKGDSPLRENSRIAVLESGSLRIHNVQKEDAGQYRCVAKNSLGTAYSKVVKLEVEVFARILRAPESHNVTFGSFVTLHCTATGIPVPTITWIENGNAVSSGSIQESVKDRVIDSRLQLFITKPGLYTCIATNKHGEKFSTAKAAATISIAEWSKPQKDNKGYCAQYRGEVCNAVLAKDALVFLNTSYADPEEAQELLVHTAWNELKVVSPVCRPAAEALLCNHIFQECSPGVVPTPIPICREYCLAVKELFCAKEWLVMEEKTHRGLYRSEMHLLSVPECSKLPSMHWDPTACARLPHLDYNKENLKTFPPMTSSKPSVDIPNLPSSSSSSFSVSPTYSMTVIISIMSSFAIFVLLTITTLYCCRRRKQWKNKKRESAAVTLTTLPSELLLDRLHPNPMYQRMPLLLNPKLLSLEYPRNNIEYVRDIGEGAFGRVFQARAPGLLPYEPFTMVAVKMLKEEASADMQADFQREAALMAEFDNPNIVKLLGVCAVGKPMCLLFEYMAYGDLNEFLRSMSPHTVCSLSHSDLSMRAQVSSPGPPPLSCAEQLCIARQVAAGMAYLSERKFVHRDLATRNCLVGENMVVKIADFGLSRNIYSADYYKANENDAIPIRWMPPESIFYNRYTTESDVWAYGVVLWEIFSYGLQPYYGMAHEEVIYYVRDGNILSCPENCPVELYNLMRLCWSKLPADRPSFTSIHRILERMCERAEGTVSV

SIK2 (human) = SIK2 (human) (UniProt Q9H0K1)
CAMK2A (human) = CAMK2A (human) (UniProt Q9UQM7)
JAK2 JH1 JH2 (human) = JAK2 JH1 JH2 (human) (UniProt O60674)
PHKG1 (human) = PHKG1 (human) (UniProt Q16816)
ACVRL1 (human) = ACVRL1 (human) (UniProt P37023)
Chain of ACVRL1 (human) (P37023 whole entry, looked up): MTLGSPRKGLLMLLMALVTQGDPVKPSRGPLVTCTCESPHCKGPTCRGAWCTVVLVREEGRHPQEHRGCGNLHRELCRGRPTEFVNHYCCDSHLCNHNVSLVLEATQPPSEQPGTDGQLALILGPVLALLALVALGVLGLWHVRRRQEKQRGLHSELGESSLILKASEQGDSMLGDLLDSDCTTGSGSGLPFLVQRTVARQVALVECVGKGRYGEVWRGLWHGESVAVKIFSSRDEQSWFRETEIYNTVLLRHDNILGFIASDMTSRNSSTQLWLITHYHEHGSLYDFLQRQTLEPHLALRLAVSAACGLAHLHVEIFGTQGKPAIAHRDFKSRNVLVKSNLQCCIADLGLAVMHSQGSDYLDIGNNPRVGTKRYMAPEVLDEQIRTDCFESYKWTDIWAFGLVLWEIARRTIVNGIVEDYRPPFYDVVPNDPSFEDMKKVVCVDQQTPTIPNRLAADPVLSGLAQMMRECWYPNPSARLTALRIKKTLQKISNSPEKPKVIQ

Chain of NEK11 (human) (Q8NG66 whole entry, looked up): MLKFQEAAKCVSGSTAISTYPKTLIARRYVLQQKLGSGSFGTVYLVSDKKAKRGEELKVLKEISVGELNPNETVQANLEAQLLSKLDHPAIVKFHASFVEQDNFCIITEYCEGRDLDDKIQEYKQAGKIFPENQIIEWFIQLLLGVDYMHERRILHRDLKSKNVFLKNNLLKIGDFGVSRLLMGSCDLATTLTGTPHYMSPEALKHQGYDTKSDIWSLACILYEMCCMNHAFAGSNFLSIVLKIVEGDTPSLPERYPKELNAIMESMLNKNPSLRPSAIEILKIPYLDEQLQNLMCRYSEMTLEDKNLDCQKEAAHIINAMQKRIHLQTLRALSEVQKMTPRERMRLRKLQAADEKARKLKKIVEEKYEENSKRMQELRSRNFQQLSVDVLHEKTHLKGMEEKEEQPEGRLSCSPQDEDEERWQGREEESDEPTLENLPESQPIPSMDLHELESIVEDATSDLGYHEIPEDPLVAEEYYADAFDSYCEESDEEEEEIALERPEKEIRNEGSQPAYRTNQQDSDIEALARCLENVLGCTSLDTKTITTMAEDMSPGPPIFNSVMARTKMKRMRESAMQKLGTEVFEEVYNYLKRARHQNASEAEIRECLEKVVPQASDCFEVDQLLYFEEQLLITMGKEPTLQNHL

## Cc1ccc(S(=O)(=O)/C=C/C#N)cc1
EPHA8 (human)
  residual activity: 96.8%
SGK3 (human)
  residual activity: 108%
DDR2 (human)
  residual activity: 96.4%
PIM1 (human)
  residual activity: 101%
NUAK1 (human)
  residual activity: 101%
NEK11 (human)
  residual activity: 95.8%
CLK3 (human)
  residual activity: 106%
HCK (human)
  residual activity: 100%
DYRK3 (human)
  residual activity: 101%
TSSK2 (human)
  residual activity: 103%
FGFR3 (human)
  residual activity: 95.2%
NTRK2 (human)
  residual activity: 98.5%
MERTK (human)
  residual activity: 96.4%
PIM3 (human)
  residual activity: 93.6%
CSNK1G3 (human)
  residual activity: 88.3%
NEK4 (human)
  residual activity: 94.3%
MARK2 (human)
  residual activity: 84%
PLK1 (human)
  residual activity: 110%
MST1R (human)
  residual activity: 113%
CSNK1E (human)
  residual activity: 107%
PRKX (human)
  residual activity: 102%
STK11 (human)
  residual activity: 91.1%
TYRO3 (human)
  residual activity: 99.8%
MAP3K3 (human)
  residual activity: 98.1%
PLK2 (human)
  residual activity: 103%
EPHA1 (human)
  residual activity: 93.2%
BTK (human)
  residual activity: 94.4%
MAP4K2 (human)
  residual activity: 130%
CSNK1D (human)
  residual activity: 103%
STK17A (human)
  residual activity: 97.8%
CSNK1G1 (human)
  residual activity: 101%
MATK (human)
  residual activity: 101%
GSK3A (human)
  residual activity: 106%
FGFR2 (human)
  residual activity: 102%
EPHB3 (human)
  residual activity: 104%
WNK2 (human)
  residual activity: 124%
MUSK (human)
  residual activity: 107%
SIK2 (human)
  residual activity: 106%
CAMK2A (human)
  residual activity: 103%
JAK2 JH1 JH2 (human)
  residual activity: 99.5%
PHKG1 (human)
  residual activity: 95.8%
ACVRL1 (human)
  residual activity: 100%

## Nc1ncnc2[nH]nc(Nc3ccc(F)cc3)c12
EPHA8 (human)
  residual activity: 94%
SGK3 (human)
  residual activity: 102%
DDR2 (human)
  residual activity: 94.2%
PIM1 (human)
  residual activity: 95.5%
NUAK1 (human)
  residual activity: 95.5%
NEK11 (human)
  residual activity: 102%
CLK3 (human)
  residual activity: 112%
HCK (human)
  residual activity: 90.7%
DYRK3 (human)
  residual activity: 89%
TSSK2 (human)
  residual activity: 90.8%
FGFR3 (human)
  residual activity: 101%
NTRK2 (human)
  residual activity: 101%
MERTK (human)
  residual activity: 90.7%
PIM3 (human)
  residual activity: 95%
CSNK1G3 (human)
  residual activity: 97.9%
NEK4 (human)
  residual activity: 92.8%
MARK2 (human)
  residual activity: 87%
PLK1 (human)
  residual activity: 99.9%
MST1R (human)
  residual activity: 93.7%
CSNK1E (human)
  residual activity: 80.5%
PRKX (human)
  residual activity: 90.4%
STK11 (human)
  residual activity: 97.1%
TYRO3 (human)
  residual activity: 100%
MAP3K3 (human)
  residual activity: 87.6%
PLK2 (human)
  residual activity: 101%
EPHA1 (human)
  residual activity: 101%
BTK (human)
  residual activity: 82.3%
MAP4K2 (human)
  residual activity: 88.9%
CSNK1D (human)
  residual activity: 67.7%
STK17A (human)
  residual activity: 88.1%
CSNK1G1 (human)
  residual activity: 83.3%
MATK (human)
  residual activity: 95.6%
GSK3A (human)
  residual activity: 88.6%
FGFR2 (human)
  residual activity: 97.2%
EPHB3 (human)
  residual activity: 87.7%
WNK2 (human)
  residual activity: 110%
MUSK (human)
  residual activity: 93.9%
SIK2 (human)
  residual activity: 78.7%
CAMK2A (human)
  residual activity: 105%
JAK2 JH1 JH2 (human)
  residual activity: 105%
PHKG1 (human)
  residual activity: 87.5%
ACVRL1 (human)
  residual activity: 108%

Reference: the kinase profiling compilation of Christmann-Franck et al. (2016)
